Assay results reported in US5424204A, “Method for stabilizing glucose 6-phosphate dehydrogenase with hydroxylamines, aldehyde scavengers, dimethylthiocarbamoyl chloride or 2-(2-aminoethylamino) ethanol” (Kyowa Medex Co., Ltd., priority 1993, dated 1995).
Counter-ions that a name gives are not always drawn.

Test system: glucose 6-phosphate dehydrogenase
Experiment: Stabilization of glucose 6-phosphate dehydrogenase in a reagent for measuring the activity of creatine kinase (residual activity after storage)
Format: biochemical
Conditions: 10 mM additive in reagent solution 1 (pH 6.6), activity immediately after preparation = 100%; for Residual activity after 3 months (%): stored at 10° C. for 3 months; for Residual Activity after 12 months (%): stored at 10° C. for 12 months

Structure (SMILES)	Residual activity after 3 months (%)	Residual Activity after 12 months (%)
Cl.NO [Compound I-1, hydroxylamine hydrochloride]	100.2	85.9
NO.NO.O=S(=O)(O)O [Compound I-2, hydroxylamine sulfate]	99.8	88.7
NO.O=C(O)C(=O)O [Compound I-3, hydroxylamine oxalate]	98.2	89.2
Cl.NOCC(=O)O [Compound I-4, carboxymethoxylamine hydrochloride]	99.9	88.9
Cl.NOCc1ccccc1 [Compound I-5, O-benzylhydroxylamine hydrochloride]	96.8	78.9
O=C(c1ccccc1)N(O)c1ccccc1 [Compound I-6, N-benzoyl-N-phenylhydroxylamine]	80.5	30.3
Cc1ccccc1N(O)C(=O)c1ccccc1 [Compound I-7, N-benzoyl-N-(2-methylphenyl)hydroxylamine]	81.5	25.6
O=C(C=Cc1ccccc1)N(O)c1ccccc1 [Compound I-8, N-cinnamoyl-N-phenylhydroxylamine]	90.4	44.5
CNO [Compound I-9, N-methylhydroxylamine]	100.1	80.3
CON [Compound I-10, O-methylhydroxylamine]	99.7	82.3
Cc1cccc(N(O)C(=O)C=Cc2ccccc2)c1C [Compound I-11, N-cinnamoyl-N-2,3-xylylhydroxylamine]	79.6	23.6
CC(C)(C)NO [Compound I-12, N-(tert-butyl)hydroxylamine]	75.5	22.2
Cl.ONC1CCCCC1 [Compound I-13, N-cyclohexylhydroxylamine hydrochloride]	92.1	80.2
NNC(=O)c1ccccc1 [II-1, benzoylhydrazine]	100.1	87.6
NNC(=O)C(=O)NN [II-3, oxalyldihydrazide]	88.5	65.2
NNC(=O)c1cccnc1 [II-4, nicotinic acid hydrazide]	70.3	38.5
CCOC(=O)CNN [II-5, ethylhydrazinoaceate hydrochloride]	75.4	28.3
Br.NNC1=NCCN1 [II-6, 2-hydrazino-2-imidazoline hydrobromide]	89.2	58.5
NNC(=O)c1cc2ccccc2cc1O [II-7, 3-hydroxy-2-naphthoenic acid hydrazide]	89.7	60.3
COC(=O)NN [II-8, methyl carbazate]	99.8	86.5
CC(=O)NNC(N)=S [II-9, 1-acetylthiosemicarbazide]	82.3	45.6
CCOC(=O)NN [II-12, ethyl carbazate]	102.2	88.3
CCNC(=S)NN [II-13, 4-ethyl-3-thiosemicarbazide]	90.2	62.1
NNC(=O)Nc1ccccc1 [II-14, 4-phenylsemicarbazide]	99.9	86.5
CC(C)NNC(=O)c1ccncc1 [II-15, iproniazide]	65.8	20.1
CC(C)=NNC(N)=S [II-16, acetone thiosemicarbazone]	79.8	41.5
NC(=S)C(N)=S [II-17, dithiooxyamide]	75.2	32.3
CN(C)C(=S)Cl [III, dimethylthiocarbamoyl chloride]	80.3	43.2
NCCNCCO [IV, 2-(2-aminoethylamino) ethanol]	98.7	81.1
